Reference: ChEMBL document CHEMBL5550103, “Design, synthesis, and antiviral activity of 1-aryl-4-arylmethylpiperazine derivatives as Zika virus inhibitors with broad antiviral spectrum” (Bioorg Med Chem, 2024)
Calls of active or inactive are those of the source. The calls are words filed in the database; no cut-off is given here.

System: Zika virus
Experiment: Antiviral activity against ZIKV infected in HUVECs pre-infected with virus followed by compound addition and measured after 48 hrs by qRT-PCR analysis
Format: functional, organism-based
Conditions: HUVEC

Point of comparison: `CN1CC2CN(c3ccnc(CN4CCN(c5ccc(Cl)cc5)CC4)c3)CC2C1` (centres undefined), EC50 1220 nM. Against it:
- Clc1ccc(N2CCN(Cc3cc(N4CC5CN(Cc6ccccc6)CC5C4)ccn3)CC2)cc1 (centres undefined) — 1.6-fold higher, 2010 nM
- CN(C)CCN(C)c1ccc(C(F)(F)F)c(CN2CCN(c3ccc(Cl)cc3)CC2)c1 — within 1.5-fold, 1130 nM

System: Zika virus
Experiment: Antiviral activity against ZIKV infected in HUVECs at 5 uM pre-infected with virus followed by compound addition and measured after 48 hrs by qRT-PCR analysis relative to control
Format: functional
Conditions: HUVEC

Point of comparison: `CN(C)CCN(C)c1ccnc(CN2CCN(c3ccc(C(F)(F)F)cc3)CC2)c1`, inhibition at 5 µM 33%. Against it:
- Cc1ccc(N2CCN(Cc3cc(N4CCCN5CCCC5C4)ccn3)CC2)cc1 (centres undefined) — lower, < 10%
- Cc1ccc(N2CCN(Cc3cc(N(C)CCN(C)CCN(C)C)ccc3C(F)(F)F)CC2)cc1 — lower, < 10%
- CN(C)CCN(C)c1ccc(C(F)(F)F)c(CN2CCN(c3ccncc3)CC2)c1 — lower, < 10%
- CN(C)CCN(CCN(C)C)c1ccnc(CN2CCN(c3ccc(C(F)(F)F)cc3)CC2)c1 — lower, < 10%
- Cc1ccc(N2CCN(Cc3cc(N4CCCN(C)CC4)ccn3)CC2)cc1 — lower, < 10%
- Clc1ccc(N2CCN(Cc3cc(N4CCC5(CCCN5Cc5ccccc5)C4)ccn3)CC2)cc1 (centres undefined) — higher, 49%
- Cc1ccc(N2CCN(Cc3cc(N(C)CCN(C)C)ccn3)CC2)cc1 — lower, < 10%
- Cc1ccc(N2CCN(Cc3cc(N4CCCN(C)CC4)ccc3C(F)(F)F)CC2)cc1 — lower, < 10%
- Cc1ccc(N2CCN(Cc3cc(N(C)CCN(C)C)ccc3C(F)(F)F)CC2)cc1 — lower, < 10%
- Cc1ccc(N2CCN(Cc3cc(N4CCC5(CCN(C)CC5)C4)ccn3)CC2)cc1 — lower, < 10%

System: not listed separately
Experiment: Cytotoxicity against HUVECs assessed as reduction in cell viability incubated for 48 hrs by CCK-8 method
Format: toxicity, cell-based
Conditions: human, HUVEC cells

Point of comparison: `CN(C)CCN(C)c1ccc(C(F)(F)F)c(CN2CCN(c3ccc(Cl)cc3)CC2)c1`, CC50 at 48 h 22400 nM. Against it:
- Clc1ccc(N2CCN(Cc3cc(N4CC5CN(Cc6ccccc6)CC5C4)ccn3)CC2)cc1 (centres undefined) — higher, > 50000 nM
- CN1CC2CN(c3ccnc(CN4CCN(c5ccc(Cl)cc5)CC4)c3)CC2C1 (centres undefined) — higher, > 50000 nM

System: not listed separately
Experiment: Cytotoxicity against HUVECs assessed as reduction in cell viability at 5 uM incubated for 48 hrs by CCK-8 method relative to control
Format: toxicity, cell-based
Conditions: human, HUVEC cells, values are per cent of control

Point of comparison: `Cc1ccc(N2CCN(Cc3cc(N4CCCN(C)CC4)ccc3C(F)(F)F)CC2)cc1`, viability, % of control at 48 h, 5 µM 105%. Against it:
- Cc1ccc(N2CCN(Cc3cc(N4CCCN5CCCC5C4)ccn3)CC2)cc1 (centres undefined) — lower, 100%
- Cc1ccc(N2CCN(Cc3cc(N(C)CCN(C)CCN(C)C)ccc3C(F)(F)F)CC2)cc1 — lower, 98%
- CN(C)CCN(C)c1ccc(C(F)(F)F)c(CN2CCN(c3ccncc3)CC2)c1 — higher, 107%
- CN(C)CCN(CCN(C)C)c1ccnc(CN2CCN(c3ccc(C(F)(F)F)cc3)CC2)c1 — lower, 104%
- Cc1ccc(N2CCN(Cc3cc(N4CCCN(C)CC4)ccn3)CC2)cc1 — the same, 105%
- Clc1ccc(N2CCN(Cc3cc(N4CCC5(CCCN5Cc5ccccc5)C4)ccn3)CC2)cc1 (centres undefined) — lower, 91%
- Cc1ccc(N2CCN(Cc3cc(N(C)CCN(C)C)ccn3)CC2)cc1 — lower, 101%
- CN(C)CCN(C)c1ccnc(CN2CCN(c3ccc(C(F)(F)F)cc3)CC2)c1 — lower, 103%
- Cc1ccc(N2CCN(Cc3cc(N(C)CCN(C)C)ccc3C(F)(F)F)CC2)cc1 — lower, 103%
- Cc1ccc(N2CCN(Cc3cc(N4CCC5(CCN(C)CC5)C4)ccn3)CC2)cc1 — lower, 100%

System: not listed separately
Experiment: Selectivity index, ratio of CC50 for HUVECs to EC50 for ZIKA virus infected in HUVECs
Format: toxicity
Conditions: human, HUVEC cells; read-out: Ratio CC50/EC50

Point of comparison: `CN(C)CCN(C)c1ccc(C(F)(F)F)c(CN2CCN(c3ccc(Cl)cc3)CC2)c1`, selectivity ratio 20. Against it:
- Clc1ccc(N2CCN(Cc3cc(N4CC5CN(Cc6ccccc6)CC5C4)ccn3)CC2)cc1 (centres undefined) — higher, > 25
- CN1CC2CN(c3ccnc(CN4CCN(c5ccc(Cl)cc5)CC4)c3)CC2C1 (centres undefined) — higher, > 41

System: Zika virus
Experiment: Antiviral activity against ZIKV infected in HUVECs assessed as reduction in NS5 protein level at 1 uM measured after 48 hrs by Western blot analysis
Format: functional, organism-based
Conditions: HUVEC

For `C#C[C@@]1(O)[C@H](O)[C@@H](CO)O[C@H]1n1ccc2c(N)ncnc21`, the Activity was “Active”.

System: Zika virus
Experiment: Antiviral activity against ZIKV infected in HUVECs assessed as inhibition of viral replication at 10 uM pretreated with cells for 1 hr followed by viral infection for 1 hr prior to compound washout and measured after 48 hrs post infection by qRT-PCR analysis
Format: functional, organism-based
Conditions: HUVEC, time 2.0 hrs

With `C#C[C@@]1(O)[C@H](O)[C@@H](CO)O[C@H]1n1ccc2c(N)ncnc21` the Activity was “inactive”.

System: Zika virus
Experiment: Antiviral activity against ZIKV infected in HUVECs assessed as inhibition of viral replication at 10 uM pre-infected with virus for 1 hr prior to compound addition for 1 hr followed by compound washout and measured after 48 hrs post infection by qRT-PCR analysis
Format: functional, organism-based
Conditions: HUVEC

For `C#C[C@@]1(O)[C@H](O)[C@@H](CO)O[C@H]1n1ccc2c(N)ncnc21`, the Activity was “Active”.
